Test results reported in patent US20230407243A1, “GENETIC PLATFORM TO INVESTIGATE THE FUNCTIONS OF BACTERIAL DRUG EFFLUX PUMPS” (priority 2022, published 2023).
Read-outs that look alike come from different tables or passages of the source.

Legend:
Type in all cases: cell-based, Escherichia coli
E. coli EKO-35 = assay: microbe, parasite or virus in culture; conditions: for MIC: Escherichia coli, EKO35, technical duplicate
Summary of the method: (§1)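 Steps: LB overnight culture at 37 °C; resuspension in PBS to OD600 ~1.0; 1/2000 dilution in MHB II; addition to 2-fold serial compound dilutions (duplicate); 18 h shaking incubation at 37 °C; OD600 read, with pre-read subtracted.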

E. coli ΔtolC = assay: microbe, parasite or virus in culture
Summary of the method: as §1

[1] = system: wild-type E. coli K-12 str. BW25113; assay: microbe, parasite or virus in culture; conditions: Escherichia coli, BW25113, technical duplicate
Summary of the method: as §1

EKO-35 araC::acrBD408A = assay: MIC susceptibility profiling, efflux platform
Summary of the method: as §1

EKO-35 araC::acrB = assay: MIC susceptibility profiling, efflux platform; conditions: EKO-35 araC::acrB compared to EKO-35
Summary of the method: as §1

EKO-35 araC::acrD = assay: MIC susceptibility profiling, efflux platform; conditions: EKO-35 araC::acrD compared to EKO-35
Summary of the method: as §1

EKO-35 araC::acrEF = assay: MIC susceptibility profiling, efflux platform; conditions: EKO-35 araC::acrEF compared to EKO-35
Summary of the method: as §1

EKO-35 araC::emrAB = assay: MIC susceptibility profiling, efflux platform; conditions: EKO-35 araC::emrAB compared to EKO-35
Summary of the method: as §1

EKO-35 araC::emrKY = assay: MIC susceptibility profiling, efflux platform
Summary of the method: as §1

EKO-35 araC::macAB = assay: MIC susceptibility profiling, efflux platform; conditions: EKO-35 araC::macAB compared to EKO-35
Summary of the method: as §1

EKO-35 araC::mdtBC = assay: MIC susceptibility profiling, efflux platform; conditions: EKO-35 araC::mdtBC compared to EKO-35
Summary of the method: as §1

EKO-35 araC::mdtEF = assay: MIC susceptibility profiling, efflux platform; conditions: EKO-35 araC::mdtEF compared to EKO-35
Summary of the method: as §1

[2] = system: EKO-35 araC::mexCD (MexCD from P. aeruginosa); assay: MIC susceptibility profiling, efflux platform
Summary of the method: as §1

wild-type (WT) K-12-Pore = assay: microbe, parasite or virus in culture; conditions: Escherichia coli, technical duplicate
Summary of the method: (§2)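 Strains carry the fhuA ΔC/Δ4L pore integrated between glmS and pstS under a constitutive promoter, with pore activity checked by vancomycin susceptibility. Overnight LB cultures were adjusted in PBS pH 7.4 to OD600 ~1.0 and diluted 1/2000 into MHB II. 2-fold compound titrations were read by OD600 after 18 h at 37 °C.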

ΔtolC-Pore = assay: microbe, parasite or virus in culture
Summary of the method: as §2

EKO-35 araC::acrEF Pore = assay: MIC susceptibility profiling, porinated efflux platform
Summary of the method: as §2

EKO-35 araC::emrKY Pore = assay: as above
Summary of the method: as §2

EKO-35 araC::macAB Pore = assay: as above; conditions: EKO-35 araC::macAB Pore compared to EKO-35-Pore
Summary of the method: as §2

EKO-35 araC::mdtEF Pore = assay: as above
Summary of the method: as §2

SMILES: NC[C@H]1O[C@H](O[C@H]2[C@H](O)[C@@H](O[C@H]3O[C@H](CO)[C@@H](O)[C@H](N)[C@H]3O)[C@H](N)C[C@@H]2N)[C@H](O)[C@@H](O)[C@@H]1O [kanamycin]
- Fold change of MICs (E. coli EKO-35; EKO-35 compared to EKO-35 (reference)): 1 fold
- MIC (E. coli EKO-35; Table 10, without pore, read-out: Minimum inhibitory concentration (MIC), EKO-35): 3.12 µg/mL
- MIC (E. coli EKO-35; Table 13A, non-porinated, read-out: Minimum Inhibitory Concentration, EKO-35): 3.12 µg/mL
- MIC (E. coli ΔtolC; Escherichia coli, 18 h, read-out: Minimum Inhibitory Concentration, ΔtolC): 1.56 µg/mL
- Minimum inhibitory concentration (MIC), ΔtolC (E. coli ΔtolC; Table 10, without pore, technical duplicate): 1.563 µg/mL
- MIC ([1]; Table 10, without pore, read-out: Minimum inhibitory concentration (MIC), K-12): 3.12 µg/mL
- MIC ([1]; Table 13A, non-porinated, read-out: Minimum Inhibitory Concentration, K-12): 3.12 µg/mL
- Fold change of MICs (EKO-35 araC::acrBD408A; EKO-35 araC::acrBD408A compared to EKO-35): 1 fold
- MIC (EKO-35 araC::acrBD408A; Escherichia coli, Table 13B, non-porinated, technical duplicate, read-out: Minimum Inhibitory Concentration, EKO-35 araC::acrBD408A): 1.56 µg/mL
- Fold change of MICs (EKO-35 araC::acrB): 1 fold
- Fold change of MICs (EKO-35 araC::acrD): 1 fold
- Fold change of MICs (EKO-35 araC::acrEF): 1 fold
- Fold change of MICs (EKO-35 araC::emrAB): 1 fold
- Fold change of MICs (EKO-35 araC::emrKY; EKO-35 araC::emrKY compared to EKO-35): 1 fold
- MIC (EKO-35 araC::emrKY; Escherichia coli, Table 13B, non-porinated, technical duplicate, read-out: Minimum Inhibitory Concentration, EKO-35 araC::emrKY): 1.56 µg/mL
- Fold change of MICs (EKO-35 araC::macAB): 1 fold
- Fold change of MICs (EKO-35 araC::mdtBC): 1 fold
- Fold change of MICs (EKO-35 araC::mdtEF): 1 fold
- Fold change of MICs ([2]; EKO-35 araC::mexCD compared to EKO-35): 1 fold
- MIC ([2]; Table 13B, non-porinated, technical duplicate, read-out: Minimum Inhibitory Concentration, EKO-35 araC::mexCD): 1.56 µg/mL
- MIC (wild-type (WT) K-12-Pore; Table 10, with pore, read-out: Minimum inhibitory concentration (MIC), Pore K-12): 3.12 µg/mL
- MIC (wild-type (WT) K-12-Pore; Table 14A, porinated, read-out: Minimum inhibitory concentration, K-12 (WT)-Pore): 3.12 µg/mL
- MIC (ΔtolC-Pore; Escherichia coli, 18 h, read-out: Minimum inhibitory concentration, ΔtolC-Pore): 1.56 µg/mL
- Minimum inhibitory concentration (MIC), Pore ΔtolC (ΔtolC-Pore; Table 10, with pore, technical duplicate): 1.563 µg/mL
- Fold changes of MICs (EKO-35 araC::acrEF Pore; EKO-35 araC::acrEF Pore compared to EKO-35-Pore): 1 fold
- MIC (EKO-35 araC::acrEF Pore; Escherichia coli, Table 14A, porinated, technical duplicate, read-out: Minimum inhibitory concentration, EKO-35 araC::acrEF Pore): 1.56 µg/mL
- Fold changes of MICs (EKO-35 araC::emrKY Pore; EKO-35 araC::emrKY Pore compared to EKO-35-Pore): 1 fold
- MIC (EKO-35 araC::emrKY Pore; Escherichia coli, EKO-35 araC::emrKY Pore, technical duplicate, read-out: Minimum inhibitory concentration): 1.56 µg/mL
- Fold changes of MICs (EKO-35 araC::macAB Pore): 2 fold
- Fold changes of MICs (EKO-35 araC::mdtEF Pore; EKO-35 araC::mdtEF Pore compared to EKO-35-Pore): 1 fold
- MIC (EKO-35 araC::mdtEF Pore; Escherichia coli, Table 14A, porinated, technical duplicate, read-out: Minimum inhibitory concentration, EKO-35 araC::mdtEF Pore): 1.56 µg/mL
